Results: patent EP3046573B1, “AMYLIN ANALOGUES” (Zealand Pharma A/S, priority 2013, dated 2015)
Numbered stars: 1 amine (or outer) side, 2 acyl side, 3 side chain; on linkers, the order of the positions; unused ones are H or OH. Bridge positions count the residues as written; N and C are the ends. Square brackets hold non-standard residues; d marks the D form. Peptide text beside a SMILES is read from it. * marks the point of attachment. C20 diacid = O=C(O)CCCCCCCCCCCCCCCCCCC(=O)*; γGlu = O=C(O)[C@H](CCC(=O)[*:2])N[*:1]; NMeI = CC[C@H](C)[C@H](NC)C(=O)O; Sar = CNCC(=O)O

Tests used:
[1] = Pharmacokinetics of test compounds in mice; assay type: in vivo; conditions: female, NMRI, mouse, plasma; for half-life: 100 nmol/kg (Pramlintide 400 nmol/kg)
Experimental: NMRI mice (supplier: Taconic; females with a body weight of approximately 25 g) were given either a single subcutaneous (sc) bolus or a single intravenous (iv) bolus of each peptide to be tested.
Following sc administration of test peptide (Compound 176, 1 or 18) (100 nmol/kg), blood samples were drawn 0.5, 2, 4, 8, 18, 40 and 56 hours post-dosing by eye bleeding. Following iv administration of Compound 176, 1 or 18 (100 nmol/kg), blood samples were drawn 0.08, 0.17, 0.5, 2, 8, 18 and 30 hours post-dosing by eye bleeding. The dosing vehicle used for each test peptide was a mannitol-containing histidine buffer (pH 7.0).
Pramlintide (400 nmol/kg) was also administered as a single sc bolus or as a single iv bolus to mice. Following sc administration, blood samples were drawn 5, 15, 20, 30, 60, 120, 180 and 240 minutes post-dosing by sublingual bleeding. Following iv administration, blood samples were drawn 5, 10, 15, 30, 60, 120, 180, and 240 minutes post-dosing by sublingual bleeding. The dosing vehicle used for Pramlintide was a mannitol-containing acetate buffer (pH 4.0).
Blood samples were taken from two mice at each time point, i.e. 14-16 mice were included for each compound. The mice were euthanized immediately after blood sampling by cervical dislocation. Plasma samples were analyzed after solid-phase extraction (SPE) by liquid chromatography mass spectrometry (LC-MS/MS). Mean plasma concentrations were used for calculation of the pharmacokinetic parameters using the non-compartmental approach in Phoenix WinNonlin 6.3.
Plasma terminal elimination half-life (t½) was determined as In(2)/λz, where λz is the magnitude of the slope of the log linear regression of the log concentration versus time profile during the terminal phase.
Bioavailability was determined as AUCinf (sc) / AUCinf (iv) x 100, where AUCinf is the area under the plasma concentration - time curve extrapolated to infinity (AUCinf = AUClast + Clast/λz, where Clast is the last observed plasma concentration).

[2] = Pharmacokinetic (PK) profiling in rats; assay type: in vivo; conditions: male, Sprague Dawley, rat, plasma, single sc bolus, 100 nmol/kg (18, NN96), 20 nmol/kg (72, 76), 30 nmol/kg (73, 82, 118, 162, 166, 172)

In the case of CC[C@H](C)[C@@H](C(=O)N[C@@H](CC(C)C)C(=O)N[C@@H](CO)C(=O)N[C@@H](CO)C(=O)N[C@H](C(=O)N[C@@H](CC(N)=O)C(=O)N[C@H](C(=O)NCC(=O)N[C@@H](CO)C(=O)N[C@@H](CC(N)=O)C(=O)N[C@H](C(=O)N1CCC[C@H]1C(N)=O)[C@@H](C)O)C(C)C)[C@@H](C)O)N(C)C(=O)[C@H](C)NC(=O)CN(C)C(=O)[C@H](Cc1ccccc1)NC(=O)[C@H](CC(N)=O)NC(=O)[C@H](CC(N)=O)NC(=O)[C@H](CO)NC(=O)[C@H](CO)NC(=O)[C@H](CCCNC(=N)N)NC(=O)[C@H](Cc1c[nH]cn1)NC(=O)[C@H](CC(C)C)NC(=O)[C@H](Cc1ccccc1)NC(=O)[C@H](CCC(=O)O)NC(=O)[C@H](C)NC(=O)[C@H](CC(C)C)NC(=O)[C@H](CCCNC(=N)N)NC(=O)[C@H](CCC(N)=O)NC(=O)[C@@H](NC(=O)[C@H](C)NC(=O)[C@@H]1CSSC[C@H](NC(=O)[C@H](CCCNC(=N)N)NC(=O)CC[C@H](NC(=O)CCCCCCCCCCCCCCCCCCC(=O)O)C(=O)O)C(=O)N[C@@H](CC(N)=O)C(=O)N[C@@H]([C@@H](C)O)C(=O)N[C@@H](C)C(=O)N[C@@H]([C@@H](C)O)C(=O)N1)[C@@H](C)O [Compound 18, [19CD]-isoGlu-RC()NTATC()ATQRLAEFLHRSSNNF-Gly(Me)-A-Ile(Me)-LSSTNVGSNTP-NH2] ({C20 diacid-γGlu}-RCNTATCATQRLAEFLHRSSNNF[Sar]A[NMeI]LSSTNVGSNTP-NH2; disulfide 2-7), the bioavailability ([1]; AUCinf (sc) / AUCinf (iv) x 100, 100 nmol/kg (Pramlintide 400 nmol/kg)) is reported as 79%, the half-life ([1]; single iv bolus, read-out: t½ (hours) iv (converted)) is reported as 20.8 h and the half-life ([1]; single sc bolus, read-out: t½ (hours) sc (converted)) is reported as 22.8 h. For the same compound, the CL/F ([2]; apparent clearance) was 3.48 mL/h/kg and the half-life ([2]; terminal elimination half-life, read-out: t½ (converted)) was 37.6 h.
